This passage reports Slope, Activity and IC50 results from patent publication US20090047246A1, “NOVEL INHIBITORS OF HEPATITIS C VIRUS REPLICATION” (InterMune, Inc., priority 2007, published 2009).

Like-named read-outs stand apart in the source and are kept apart here.

The target in one experiment is NS3 Helicase (Hepatitis C virus genotype 1b, UniProt P26663). Put plainly: Activity of NS3 Helicase in Presence of Detergent with or without LDAO (Table A). The class given is biochemical. The protocol: In another embodiment, at least one detergent is added to a solution containing NS3 to improve the helicase activity. In some embodiments, the detergent is selected from the group consisting of LDAO, Tween 20, Triton X100, Pluronic F127, CHAPS, β-octyl glucoside, laurylmaltoside, N-lauroylsarcosine, and hexadecyltrimethylammonium bromide. In a preferred embodiment, LDAO is added. In a more preferred embodiment, at least one additional detergent in added to the solution containing NS3 and LDAO. In some embodiments, the additional detergent(s) is/are selected from the group consisting of Tween 20, Triton X100, Pluronic F127, CHAPS, β-octyl glucoside, laurylmaltoside, N-lauroylsarcosine, and hexadecyltrimethylammonium bromide. Table A represents the helicase activity of NS3 in the presence of LDAO and at least one additional detergent; and, in the absence of LDAO and the presence of at least one other detergent.

The target of the next experiment is T1, HCV NS3 helicase (Hepatitis C virus genotype 1b, UniProt P26663).
T1 construct: full-length NS3 (1-631), purified at Array BioPharma
Put plainly: HCV Helicase Prompt FRET Assay (Example A). The class given is biochemical. The conditions noted are these: read-out: IC50 Activity. The gist of the method:
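Full-length NS3 (1-631), 5 or 6 nM, preincubated 5 min with compound, then unwinds 50 nM FAM/BHQ-1 duplex substrate with 250 nM capture strand and 300 μM ATP in 25 mM MOPS pH 7.0, 1.5 mM MgCl2, 0.005% Triton X-100, 2% DMSO. Fluorescence (485/535 nm) followed ~30 min at room temperature; IC50 from initial rates by 4- or 5-parameter fit.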

Where [1] appears, read: plus LDAO 0.6 mM, detergent 0.020%.
The mark [2] stands for this setting: plus LDAO 0.6 mM, detergent 0.020%, control = 100.
The mark [3] stands for this setting: plus LDAO 0.6 mM, detergent 0.075%.
The mark [4] stands for this setting: plus LDAO 0.6 mM, detergent 0.075%, control = 100.
[5] abbreviates: plus LDAO 0.6 mM, detergent 0.05 mM.
The mark [6] stands for this setting: plus LDAO 0.6 mM, detergent 0.05 mM, control = 100.
Where [7] appears, read: plus LDAO 0.6 mM, detergent 0.2 mM.
Setting [8] is: plus LDAO 0.6 mM, detergent 0.2 mM, control = 100.
Where [9] appears, read: Table 37, compounds made using Scheme 55.
Setting [10] is: HCV NS3 helicase, tables do not say whether Example A or Example B assay.
Setting [11] is: Table 21, compounds made using Scheme 28.
The mark [12] stands for this setting: Table 31, compounds made using Schemes 38-45.

By IC50 is commonly meant the concentration at which inhibition is half-maximal.

NS3 Helicase, sequence (P26663 1027-1657): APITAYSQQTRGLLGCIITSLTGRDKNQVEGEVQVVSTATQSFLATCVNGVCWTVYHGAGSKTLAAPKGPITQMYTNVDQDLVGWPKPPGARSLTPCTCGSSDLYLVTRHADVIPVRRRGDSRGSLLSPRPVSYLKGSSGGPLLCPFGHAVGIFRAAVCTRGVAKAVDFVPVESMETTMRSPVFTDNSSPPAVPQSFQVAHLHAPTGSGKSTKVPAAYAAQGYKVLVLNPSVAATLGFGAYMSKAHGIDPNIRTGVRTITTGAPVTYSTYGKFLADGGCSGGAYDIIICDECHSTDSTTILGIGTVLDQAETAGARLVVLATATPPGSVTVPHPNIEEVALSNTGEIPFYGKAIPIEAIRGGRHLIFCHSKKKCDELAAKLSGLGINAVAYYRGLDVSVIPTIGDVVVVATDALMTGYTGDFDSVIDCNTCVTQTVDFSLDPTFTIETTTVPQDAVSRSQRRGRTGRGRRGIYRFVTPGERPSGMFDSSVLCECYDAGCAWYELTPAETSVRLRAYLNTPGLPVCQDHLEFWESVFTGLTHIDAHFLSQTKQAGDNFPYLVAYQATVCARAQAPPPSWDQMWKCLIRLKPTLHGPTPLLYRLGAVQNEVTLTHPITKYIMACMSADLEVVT
T1 sequence (P26663 1027-1657): as above

With `CCCCCCCCO[C@@H]1O[C@H](CO)[C@@H](O)[C@H](O)[C@H]1O` [β-octyl glucoside], the results for the Slope on NS3 Helicase (setting [1]) and at NS3 Helicase (setting [3]) were −0.45 mP/min and −0.38 mP/min, respectively. The figures for the Activity at NS3 Helicase (setting [2]) and at NS3 Helicase (setting [4]) were 74% and 62%, respectively.
`CCCCCCCCCCCC(=O)N(C)CC(=O)O` [N-lauroylsarcosine]: the Slope at NS3 Helicase (setting [5]) is recorded as −0.53 mP/min; at NS3 Helicase (setting [7]) it was −0.28 mP/min. In addition, the Activity on NS3 Helicase (setting [6]) was determined as 87%; at NS3 Helicase (setting [8]) it was 46%.
In the case of Pluronic F127, the Activity on NS3 Helicase (no LDAO, detergent 0.020%) is given as 126%; at NS3 Helicase (no LDAO, detergent 0.075%), 155%; on NS3 Helicase (setting [2]), 300%; at NS3 Helicase (setting [4]), 339%. Also, the Slope is listed as −0.48 mP/min at NS3 Helicase (no LDAO, detergent 0.020%); −0.59 mP/min on NS3 Helicase (no LDAO, detergent 0.075%); −1.14 mP/min on NS3 Helicase (setting [1]); −1.29 mP/min at NS3 Helicase (setting [3]).
In the case of `CCCCCCCCCCCCCCCC[N+](C)(C)C.[Br-]` [hexadecyltrimethylammonium bromide], the Slope was found to be 0.24 mP/min at NS3 Helicase (setting [5]) and 0.74 mP/min at NS3 Helicase (setting [7]). In addition, the results for the Activity on NS3 Helicase (setting [6]) and on NS3 Helicase (setting [8]) were −39% and −121%, respectively.
With `CC(=O)Nc1cccc(-c2ccc3c(CC(=O)O)cn(Cc4csc5ccc(Cl)cc45)c3c2)c1` [Example 766], the IC50 on HCV NS3 helicase (setting [9]) was in the range of 10 to 50 µM.
Turning to `O=C(O)c1cccc2[nH]c3ccccc3c12` [Example 467], the IC50 on HCV NS3 helicase (setting [10]) was more than 50 µM.
Still for that read-out and setting: then `O=C(O)Cc1cn(Cc2ccc(Oc3ccccc3F)cc2)c2ccccc12` [Example 493], with less than 10 µM.
Still for that read-out and setting: then `CC(=O)Nc1ccc(-c2ccc(Cc3[nH]c4ccccc4c3CC(=O)O)cc2)cc1` [Example 292], with 10 to 50 µM; and `O=C(O)C(=O)c1cn(Cc2csc3ccc(Cl)cc23)c2cc(N3CCCC(O)C3)ccc12` (stereo not shown) [Example 744], with less than 10 µM.
Still for that read-out and setting: to `O=C(O)Cc1cn(Cc2ccc(Oc3ccc(C(F)(F)F)cc3)cc2)c2ccccc12` [Example 504] belongs less than 10 µM.
Consider `CC(C)c1ccc(Cn2c(C(=O)NCc3cccc(-c4ccccc4)c3)c(CC(=O)O)c3cc(Br)ccc32)cc1` [Example 445], for which, on HCV NS3 helicase (setting [10]), the IC50 was less than 10 µM.
For the compound `CC(C)c1ccc(Cn2cc(C(NC(=O)OC(C)(C)C)C(=O)O)c3ccccc32)cc1` (stereo not shown) [Example 419], at HCV NS3 helicase (setting [10]), the IC50 fell in the range of 10 to 50 µM.
Same read-out and setting: to `COC(=O)C(c1ccc([N+](=O)[O-])cc1C)C1CN(c2ccc([N+](=O)[O-])cc2C)c2ccc(Br)cc21` (stereo not shown) [Example 400] belongs 10 to 50 µM.
Consider `CC(C)c1ccc(Cn2c(C(N)=O)c(CC(=O)O)c3ccccc32)cc1` [Example 665], for which the IC50 on HCV NS3 helicase (Table 32, compounds made using Schemes 46-49) lay in the range of 10 to 50 µM.
`O=C(O)Cc1c(C(=O)c2cccc(-c3cccc(C(F)(F)F)c3)c2)[nH]c2ccccc12` [Example 225]: the IC50 on HCV NS3 helicase (setting [10]) was 10 to 50 µM.
On the same count and under the same terms, to `Cc1c(Cl)cccc1-c1ccc(-n2cc(CC(=O)O)c3ccccc32)cc1` [Example 150] belongs less than 10 µM; to `O=C(O)Cc1c(Cc2cccc(-c3cccc(C(F)(F)F)c3)c2)[nH]c2ccccc12` [Example 296], less than 10 µM; to `Cc1cc([N+](=O)[O-])ccc1-n1cc(C(C)C(=O)O)c2cc(Br)ccc21` (stereo not shown) [Example 391], 10 to 50 µM.
Turning to `CN(c1ccc(Cn2cc(CC(=O)O)c3ccccc32)cc1)c1ccc(Cl)c(Cl)c1` [Example 575], the IC50 on HCV NS3 helicase (setting [11]) was less than 10 µM.
As for `Cc1cc([N+](=O)[O-])ccc1-n1cc(C(=O)C(=O)O)c2cc(Br)cnc21` [Example 332], at HCV NS3 helicase (setting [10]), the 50% inhibitory concentration (IC50) was in the range of 10 to 50 µM.
On the same count and under the same terms, then `Cc1cc([N+](=O)[O-])ccc1-n1cc(C(=O)C(N)=O)c2cc(Br)ccc21` [Example 384], with more than 50 µM; and `Cc1cc([N+](=O)[O-])ccc1N1CC(CC(=O)O)c2cc(Br)ccc21` (stereo not shown) [Example 395], with 10 to 50 µM.
On the same count and under the same terms, then `O=C(O)Cc1c(C(=O)Cc2ccccc2Br)n(Cc2ccccc2)c2ccccc12` [Example 260], with less than 10 µM.
`CCOC(=O)Cc1cn(Cc2cccc(N(C)c3ccccc3Cl)c2)c2cc(-c3cccc(O)c3)ccc12` [Compound 624]: the IC50 at HCV NS3 helicase (Table 30, compounds made using Scheme 37) lay in the range of 10 to 50 µM.
Consider `NC(=O)c1cccc(-c2ccc(C(=O)c3[nH]c4ccccc4c3CC(=O)O)cc2)c1` [Example 263], for which the half-maximal inhibitory concentration (IC50) at HCV NS3 helicase (setting [10]) fell in the range of 10 to 50 µM.
Take `NC(=O)Nc1ccccc1-c1ccc2c(CC(=O)O)cn(Cc3csc4ccc(Cl)cc34)c2c1` [Example 769]: the half-inhibitory concentration (IC50) at HCV NS3 helicase (setting [9]) is more than 50 µM.
In the case of `Cc1cc([N+](=O)[O-])ccc1-n1cc(C(=O)C(=O)N2CCCC2)c2cc(Br)ccc21` [Example 401], the IC50 on HCV NS3 helicase (setting [10]) is more than 50 µM.
On the same count and under the same terms, then `O=C(O)Cc1c(Cc2ccc(-c3cccc(Cl)c3Cl)cc2)[nH]c2ccccc12` [Example 290], with less than 10 µM; and `O=C(O)Cc1c(Cc2ccc(-c3ccccc3F)cc2)[nH]c2ccccc12` [Example 286], with 10 to 50 µM; and `CCNC(=O)Cc1cn(Cc2cccc(OCc3ccccc3)c2)c2ccc(OCc3ccccc3)cc12` [Example 186], with 10 to 50 µM.
Turning to `CN(Cc1cccc(Cl)c1)c1ccc(-n2cc(CC(=O)O)c3ccccc32)cc1` [Example 179], the IC50 at HCV NS3 helicase (setting [10]) is less than 10 µM.
The same measure, in the same setting: to `O=C(O)Cc1cn(Cc2cccc(Oc3ccc(C(F)(F)F)cc3)c2)c2ccccc12` [Example 483] belongs less than 10 µM; to `COc1cccc(CN(C)c2ccc(-n3cc(CC(=O)O)c4ccccc43)cc2)c1` [Example 177], less than 10 µM; to `O=C(O)Cc1cn(Cc2cc(F)cc(C(F)(F)F)c2)c2ccc(Br)cc12` [Example 134], 10 to 50 µM.
In the case of `O=C(O)Cc1cn(Cc2csc3ccc(Cl)cc23)c2cc(-c3cccc(O)c3)ccc12` [Example 625], the IC50 on HCV NS3 helicase (setting [12]) is less than 10 µM.
Turning to `O=C(O)Cc1cn(Cc2ccc(Oc3ccc(Cl)cc3Cl)cc2)c2ccccc12` [Example 589], the IC50 on HCV NS3 helicase (setting [10]) was less than 10 µM.
In the case of `NC(=O)c1ccc(N)cc1-c1ccc2c(CC(=O)O)cn(Cc3csc4ccc(Cl)cc34)c2c1` [Example 641], at HCV NS3 helicase (setting [12]), the IC50 lay within 10 to 50 µM.
For `CC(=O)Nc1ccccc1-c1ccc2c(CC(=O)O)cn(Cc3csc4ccc(Cl)cc34)c2c1` [Example 768], the IC50 at HCV NS3 helicase (setting [9]) was in the range of 10 to 50 µM.
Take `CCN(Cc1ccccc1)c1ccc(-n2cc(CC(=O)O)c3ccccc32)cc1` [Example 166]: the IC50 at HCV NS3 helicase (setting [10]) is less than 10 µM.
Same read-out and setting: then `CN(c1ccc(C(F)(F)F)cc1)c1cccc(Cn2cc(CC(=O)O)c3ccccc32)c1` [Example 531], with less than 10 µM; and `CCN(c1cccc(Cn2cc(CC(=O)O)c3ccccc32)c1)c1ccccc1C(F)(F)F` [Example 553], with 10 to 50 µM.
Take `Cc1cc([N+](=O)[O-])ccc1-n1ccc2cc(Br)ccc21` [Example 376]: the IC50 on HCV NS3 helicase (setting [10]) was more than 50 µM.
For `CN(c1ccc(Cn2cc(CC(=O)O)c3ccccc32)cc1)c1ccc(C(F)(F)F)cc1` [Example 567], at HCV NS3 helicase (setting [11]), the IC50 was less than 10 µM.
In the case of `O=C(O)Cc1cn(-c2ccc(-c3cc(Cl)cc(Cl)c3)cc2)c2ccccc12` [Example 151], on HCV NS3 helicase (setting [10]), the IC50 is less than 10 µM.
On the same count and under the same terms, to `O=C(O)Cc1cn(Cc2csc3ccc(Cl)cc23)c2cc(Br)ccc12` [Example 359] belongs 10 to 50 µM; to `O=C(O)Cc1cn(Cc2cccc(Oc3cc(C(F)(F)F)cc(C(F)(F)F)c3)c2)c2ccccc12` [Example 492], less than 10 µM.
Regarding `CCOC(=O)Cc1cn(Cc2c(-c3cccc(Cl)c3)sc3ccccc23)c2cc(-c3cc([N+](=O)[O-])cc([N+](=O)[O-])c3)ccc12` [Example 714], the IC50 on HCV NS3 helicase (Table 36, compounds made using Scheme 54) lay in the range of 10 to 50 µM.
As for `OC1CCCN(c2ccc3ccn(Cc4csc5ccc(Cl)cc45)c3c2)C1` (stereo not shown) [Example 742], the IC50 at HCV NS3 helicase (setting [10]) was in the range of 10 to 50 µM.
